{"source": "patent US11058116B1", "about": "“Composition for stimulating plant growth and resistance to stress factors” (AGRATEK PTE. LTD., priority 2018, dated 2021)", "origin": "cited, not measured here", "key": {"seeds": {"test_system": "seeds", "conditions": "pre-treatment of seeds with a solution"}, "mold": {"test_system": "mold", "conditions": "pre-treatment of seeds with a solution"}}}
{"smiles": "O=C([O-])CCC(=O)[O-].[Mg+2]", "note": "[succinate of magnesium, magnesium succinate (Mg2C4H4O4)]", "values": [{"measurement": "germination (increased to)", "setting": "seeds", "value": 99, "unit": "%"}, {"measurement": "reduces the seeds infection with mold", "setting": "mold", "value": 86, "unit": "%"}]}
